Data from article PMC3366684, “Studies on the Synthesis of Derivatives of Marine-Derived Bostrycin and Their Structure-Activity Relationship against Tumor Cells” (Marine Drugs, 2012).

Assays:
A549 cells = assay: MTT cytotoxicity assay, A549; type: cell-based, human; details: for IC50: A549, human lung cancer cell line, MTT, 48 h exposure, mean ± SD, three independent experiments
Experimental: (§1) All compounds were evaluated for their in vitro cytotoxic activity against five human cancer cell lines including human breast MCF-7, human breast MDA-MB-435, human lung A549, human liver HepG2 and human colon HCT-116, and compared with their effects on the immortalized human breast epithelial cell line MCF-10A by MTT assay using epirubicin (an anticancer drug used widely in the clinic) as positive control.
(§2) MCF-7, MDA-MB-435, A549, HepG2 and HCT-116 cells were cultured in Dulbecco’s modification Eagle’s medium (DMEM, Invitrogen, Carlsbad, CA, USA) supplemented with 10% fetal bovine serum (FBS, Hyclone, Logan, UT, USA), 2 mM L-glutamine, 100 μg/mL streptomycin and 100 U/mL penicillin (Invitrogen). MCF-10A cells were cultured in keratinocyte serum free medium (KSFM) supplemented with 0.1–0.2 ng/mL human recombinant epidermal growth factor and 20–30 μg/mL bovine pituitary extract (Invitrogen). The cells were incubated at 37 °C in a humidified atmosphere with 5% CO2.
(§3) Cells were harvested during logarithmic growth phase and seeded in 96-well plates at a density of 1 × 10^4 cells/mL, and cultured at 37 °C in a humidified incubator (5% CO2) for 24 h, followed by exposure to various concentrations of compounds tested for 48 h. Subsequently 20 μL of MTT (Genview, Houston, TX, USA) solution (5 mg/mL) was added to each well and mixed, the cells were then incubated for an additional 4 h. Culture supernatant was moved, 150 μL of DMSO (Sangon Biotech, Shanghai, China) was added to each well to fully dissolve the MTT-formazan crystals. Cell growth inhibition was determined by measuring the absorbance (Abs) at λ = 570 nm using a microplate reader and calculated according to the following equation:
(§4) Growth inhibition = (1 − OD of treated cells/OD of control cells) × 100%
(§5) The half maximal inhibitory concentrations (IC50) were obtained from liner regression analysis of the concentration-response curves plotted for each tested compound.

[1] = system: five human cancer cell lines (MCF-7, MDA-MB-435, A549, HepG2, HCT-116); assay: MTT cytotoxicity assay, panel of five human cancer cell lines (summary statements); type: cell-based; details: MCF-7, MDA-MB-435, A549, HepG2 and HCT-116, read-out: IC50 against the tested human cancer cell lines (summary over the panel)
Experimental: as §1, §2
Cells were harvested during logarithmic growth phase and seeded in 96-well plates at a density of 1 × 10^4 cells/mL, and cultured at 37 °C in a humidified incubator (5% CO2) for 24 h, followed by exposure to various concentrations of compounds tested for 48 h. […] Cell growth inhibition was determined by measuring the absorbance (Abs) at λ = 570 nm using a microplate reader and calculated according to the following equation: […]

HCT-116 cells = assay: MTT cytotoxicity assay, HCT-116; type: cell-based, human; details: for IC50: HCT-116, human colon cancer cell line, MTT, 48 h exposure, mean ± SD, three independent experiments
Experimental: as §1, §2, §3, §4, §5

[2] = MTT cytotoxicity assay, MCF-10A; type: cell-based; details: MCF-10A cells, immortalized human breast epithelial cell line, 48 h exposure, mean ± SD, three independent experiments
Experimental: as §1, §2, §3, §4, §5

MCF-7 cells = assay: MTT cytotoxicity assay, MCF-7; type: cell-based, human; details: for IC50: MCF7, human breast cancer cell line, MTT, 48 h exposure, mean ± SD, three independent experiments
Experimental: as §1, §2, §3, §4, §5

MDA-MB-435 cells = assay: MTT cytotoxicity assay, MDA-MB-435; type: cell-based, human; details: for IC50: MDA-MB-435, human breast cancer cell line, MTT, 48 h exposure, mean ± SD, three independent experiments
Experimental: as §1, §2, §3, §4, §5

HepG2 cells = assay: MTT cytotoxicity assay, HepG2; type: cell-based, human; details: for IC50: human liver cancer cell line, MTT, 48 h exposure, mean ± SD, three independent experiments
Experimental: as §1, §2, §3, §4, §5

[3] = ratio of IC50 values, bostrycin vs compound

Structure (SMILES) | IC50 (A549 cells) | IC50 [1] | IC50 (HCT-116 cells) | IC50 at 48 h [2] | melting point | IC50 (MCF-7 cells) | IC50 (MDA-MB-435 cells) | IC50 (HepG2 cells; Homo sapiens, HepG2, 48 h) | fold more active than bostrycin, A549 (A549 cells; [3]) | fold more active than bostrycin, HCT-116 (HCT-116 cells; [3]) | fold more active than bostrycin, MCF-7 (MCF-7 cells; [3]) | fold more active than bostrycin, MDA-MB-435 (MDA-MB-435 cells; [3]) | IC50 (HepG2 cells) | fold more active than bostrycin, HepG2 (HepG2 cells; [3])
COc1cc(O)c2c(c1O)C(=O)c1cc(C)ccc1C2=O [Compound 4, Austrocortinin] | > 50 µM | > 50 µM | > 50 µM | > 50 µM | 232 to 233 °C | > 50 µM | 41.6 ± 2.63 µM | > 50 µM |  |  |  |  |  | 
CCCNC1=CC(=O)c2c(O)c3c(c(O)c2C1=O)C[C@](C)(O)[C@H](O)[C@H]3O [Compound 10, 6-(n-Propylamino)-6-demethoxybostrycin] | 21.5 ± 1.43 µM |  | 26.4 ± 0.89 µM | > 50 µM | 210 to 211 °C | 14 ± 0.98 µM | > 50 µM | 18 ± 0.6 µM |  |  |  |  |  | 
CCCCNC1=CC(=O)c2c(O)c3c(c(O)c2C1=O)C[C@](C)(O)[C@H](O)[C@H]3O [Compound 11, 6-(n-Butylamino)-6-demethoxybostrycin] | 25.1 ± 0.74 µM |  | 36.5 ± 0.53 µM | > 50 µM | 236 to 237 °C | 1.08 ± 0.21 µM | > 50 µM | 35.7 ± 1.29 µM |  |  |  |  |  | 
C[C@]1(O)Cc2c(O)c3c(c(O)c2[C@H](O)[C@H]1O)C(=O)C=C(NCCO)C3=O [Compound 13, 6-(2′-Hydroxyethylamino)-6-demethoxybostrycin] | > 50 µM |  | 35.9 ± 1.13 µM | > 50 µM | 202 to 203 °C | 35.6 ± 1.4 µM | > 50 µM | 32.2 ± 2.43 µM |  |  |  |  |  | 
C[C@]1(O)Cc2c(O)c3c(c(O)c2[C@H](O)[C@H]1O)C(=O)C=C(NCCOCCO)C3=O [Compound 14, 6-[(2″-Hydroxyethoxy)ethylamino]-6-demethoxybostrycin] | > 50 µM |  | > 50 µM | > 50 µM | 112 to 113 °C | > 50 µM | > 50 µM | > 50 µM |  |  |  |  |  | 
C[C@]1(O)Cc2c(O)c3c(c(O)c2[C@H](O)[C@H]1O)C(=O)C=C(Nc1ccccc1)C3=O [Compound 15, 6-(Phenylamino)-6-demethoxybostrycin] | 4.87 ± 0.43 µM |  | 4.84 ± 0.25 µM | 41.6 ± 0.51 µM | 226 to 227 °C | 3.72 ± 0.27 µM | 10.3 ± 0.45 µM | > 50 µM |  |  |  |  |  | 
C[C@]1(O)Cc2c(O)c3c(c(O)c2[C@H](O)[C@H]1O)C(=O)C=C(NCc1ccccc1)C3=O [Compound 17, 6-(Benzylamino)-6-demethoxybostrycin] | 21.3 ± 2.02 µM |  | 20.6 ± 0.37 µM | 19.8 ± 0.63 µM | 153 to 154 °C | 28.7 ± 2.37 µM | 40.4 ± 1.49 µM | > 50 µM |  |  |  |  |  | 
COc1ccc(CNC2=CC(=O)c3c(O)c4c(c(O)c3C2=O)C[C@](C)(O)[C@H](O)[C@H]4O)cc1 [Compound 18, 6-(p-Methoxybenzylamino)-6-demethoxybostrycin] | 15.2 ± 0.42 µM |  | 13.6 ± 1.85 µM | 27.7 ± 0.93 µM | 149 to 150 °C | 9.17 ± 0.28 µM | 25.6 ± 1.71 µM | > 50 µM |  |  |  |  |  | 
C[C@]1(O)Cc2c(O)c3c(c(O)c2[C@H](O)[C@H]1O)C(=O)C=C(NCc1ccc(F)cc1)C3=O [Compound 19, 6-(p-Fluorobenzylamino)-6-demethoxybostrycin] | 6.25 ± 0.43 µM |  | 4.92 ± 0.38 µM | 7.5 ± 0.69 µM | 147 to 148 °C | 7.94 ± 0.26 µM | 7.86 ± 1.2 µM | > 50 µM |  |  |  |  |  | 
CCSC1=C(SCC)C(=O)c2c(O)c3c(c(O)c2C1=O)C[C@](C)(O)[C@H](O)[C@H]3O [Compound 23, 6,7-bis(Ethylthio)-6-demethoxybostrycin] | 4.07 ± 0.51 µM |  | 0.95 ± 0.06 µM | 14.8 ± 0.96 µM | 180 to 181 °C | 0.71 ± 0.01 µM | 0.76 ± 0.06 µM | 6.9 ± 0.26 µM |  |  |  |  |  | 
CCCCSC1=C(SCCCC)C(=O)c2c(O)c3c(c(O)c2C1=O)C[C@](C)(O)[C@H](O)[C@H]3O [Compound 24, 6,7-bis(n-Butylthio)-6-demethoxybostrycin] | 4.06 ± 0.42 µM |  | 3.25 ± 0.54 µM | 30.6 ± 2.54 µM | 124 to 125 °C | 2.45 ± 0.48 µM | 7.05 ± 0.56 µM | 4.03 ± 0.13 µM |  |  |  |  |  | 
CCCCCCSC1=C(SCCCCCC)C(=O)c2c(O)c3c(c(O)c2C1=O)C[C@](C)(O)[C@H](O)[C@H]3O [Compound 25, 6,7-bis(n-Hexylthio)-6-demethoxybostrycin] | 0.71 ± 0.01 µM |  | 0.74 ± 0.1 µM | 35 ± 1.94 µM | 112 to 113 °C | 2.6 ± 0.45 µM | 10.6 ± 1.11 µM | 3.33 ± 0.66 µM |  |  |  |  |  | 
C[C@]1(O)Cc2c(O)c3c(c(O)c2[C@H](O)[C@H]1O)C(=O)C1=C(SCCS1)C3=O [Compound 28, 6,7-(Ethan-1′,2′-yl-dithio)-6-demethoxybostrycin] | 0.37 ± 0.04 µM |  | 0.68 ± 0.08 µM | 0.81 ± 0.11 µM | > 300 °C | 0.57 ± 0.04 µM | 0.63 ± 0.45 µM |  | 7.1 fold | 7.0 fold | 3.8 fold | 4.5 fold | 0.82 ± 0.01 µM | 9.4 fold
